From ChEMBL document CHEMBL3868622, “Development of 1-aryl-3-furanyl/thienyl-imidazopyridine templates for inhibitors against hypoxia inducible factor (HIF)-1 transcriptional activity” (Bioorg Med Chem Lett, 2016)

Biological target: Hypoxia inducible factors; HIF-1-alpha, HIF-2-alpha (Homo sapiens, UniProt Q16665+Q99814)
Assay: Inhibition of hypoxia-induced HIF1 transcriptional activity in human HeLa cells measured after 12 hrs by luciferase reporter gene assay
Assay type: cell-based

SMILES	IC50 [µM]
OCc1ccc(-c2nc(Cc3ccccc3)c3ccccn23)o1	56
OCc1ccc(-c2nc(-c3ccccc3CO)c3ccccn23)o1	6.5
OCc1ccc(-c2nc(-c3ccccc3CO)c3ccccn23)s1	9.4
OCc1ccc(-c2nc(-c3cc(C(F)(F)F)cc(C(F)(F)F)c3)c3ccccn23)o1	25
OCc1ccc(-c2nc(-c3ccc(C(F)(F)F)cc3)c3ccccn23)o1	17
COc1ccc(-c2nc(-c3ccc(CO)o3)n3ccccc23)cc1	61
N#Cc1ccc(-c2nc(-c3ccc(CO)o3)n3ccccc23)cc1	7.4
OCc1ccc(-c2nc(-c3ccccc3)c3ccccn23)s1	3.7
OCc1ccc(-c2nc(-c3ccncc3)c3ccccn23)s1	9.1
COc1ccccc1-c1nc(-c2ccc(CO)o2)n2ccccc12	75
Cc1ccc(-c2nc(-c3ccc(CO)o3)n3ccccc23)cc1	39
OCc1ccc(-c2nc(-c3ccccc3)c3ccccn23)o1	70
